# Where two headings read alike, the source gives them in different places.
# Legend:
# CCRF-CEM = experiment: NCI five-dose assay; assay type: cell-based; conditions: Homo sapiens, Leukemia CCRF-CEM
# RPMI-8226 = experiment: NCI five-dose assay; assay type: cell-based; conditions: Leukemia RPMI-8226
# SN12C = experiment: NCI five-dose assay; assay type: cell-based; conditions: Renal Cancer SN12C
# MDA-MB-435 = experiment: NCI five-dose assay; assay type: cell-based; conditions: Homo sapiens, Melanoma MDA-MB-435
# COLO 205 = experiment: NCI five-dose assay; assay type: cell-based, human; conditions: Colon Cancer COLO 205
# CAKI-1 = experiment: NCI five-dose assay; assay type: cell-based; conditions: Renal Cancer CAKI-1
# MCF7 = experiment: NCI five-dose assay; assay type: cell-based, human; conditions: Breast Cancer MCF7
# HOP-62 = experiment: NCI five-dose assay; assay type: cell-based, human; conditions: Non-Small-Cell Lung Cancer HOP-62
# OVCAR-8 = experiment: NCI five-dose assay; assay type: cell-based; conditions: Ovarian Cancer OVCAR-8
# U251 = experiment: NCI five-dose assay; assay type: cell-based; conditions: CNS Cancer U251
# ACHN = experiment: NCI five-dose assay; assay type: cell-based; conditions: Renal Cancer ACHN
# SK-MEL-5 = experiment: NCI five-dose assay; assay type: cell-based; conditions: Melanoma SK-MEL-5
# SF-268 = experiment: NCI five-dose assay; assay type: cell-based; conditions: Homo sapiens, CNS Cancer SF-268
# SR cancer cell line = experiment: Annexin V/PI flow cytometry; assay type: cell-based, human; conditions: 24 h, at IC50, second value printed in the panel of Figure 11
# Protocol: Figure 11 Contour diagram of annexin V/PI flow cytometry against SR cancer cell line. […] The test was repeated three times. Following incubation for 24 h, cells were analyzed by flow cytometry after double staining with annexin V/PI.
# HCC-2998 = experiment: NCI five-dose assay; assay type: cell-based; conditions: Colon Cancer HCC-2998
# Breast Cancer subpanel = experiment: NCI five-dose assay, subpanel; assay type: cell-based, human; conditions: for GI50: Homo sapiens
# Protocol: (§1) The outcomes were used to form log concentration vs. percentage growth inhibition curves and three response parameters (GI50, total growth inhibition (TGI), and LC50) were calculated for each cell line (Table 2).
# (§2) The criterion for selectivity of a compound depends upon the ratio obtained by dividing the full-panel MID (the average sensitivity of all cell lines toward the test agent) (μM) by the individual subpanel MIDs (μM).
# Melanoma subpanel = experiment: NCI five-dose assay, subpanel; assay type: cell-based, human
# Protocol: as §1, §2
# CNS Cancer subpanel = experiment: NCI five-dose assay, subpanel; assay type: cell-based, human
# Protocol: as §1, §2
# Renal Cancer subpanel = experiment: NCI five-dose assay, subpanel; assay type: cell-based, human
# Protocol: as §1, §2
# Colon Cancer subpanel = experiment: NCI five-dose assay, subpanel; assay type: cell-based, human; conditions: for GI50: Homo sapiens
# Protocol: as §1, §2
# [1] = tested on: Non-Small-Cell Lung Cancer subpanel; experiment: NCI five-dose assay, subpanel; assay type: cell-based, human
# Protocol: as §1, §2
# Ovarian Cancer subpanel = experiment: NCI five-dose assay, subpanel; assay type: cell-based, human; conditions: for GI50: Homo sapiens
# Protocol: as §1, §2
# Leukemia subpanel = experiment: NCI five-dose assay, subpanel; assay type: cell-based, human; conditions: for GI50: Homo sapiens
# Protocol: as §1, §2
# Prostate Cancer subpanel = experiment: NCI five-dose assay, subpanel; assay type: cell-based, human
# Protocol: as §1, §2
# [2] = read-out: GI50 Concentration/Cell Line
# [3] = Homo sapiens, read-out: GI50 Concentration/Cell Line
# [4] = Homo sapiens, read-out: LC50 (the source's name)
# [5] = Non-Small-Cell Lung Cancer subpanel
structure (smiles),measurement,setting,value
COC(=O)C=C1SC(=NNC(=O)c2cc3ccc2CCc2ccc(cc2)CC3)N(c2ccccc2)C1=O [Compound 3a],LC50,CCRF-CEM,> 100 µM
same,GI50,CCRF-CEM; [2],2.71 µM
same,LC50,RPMI-8226; Homo sapiens,> 100 µM
same,GI50,RPMI-8226; [3],2.15 µM
same,TGI Concentration/Cell Line,RPMI-8226,5.69 µM
same,LC50,SN12C; Homo sapiens,> 100 µM
same,GI50,SN12C; [3],2.27 µM
same,TGI Concentration/Cell Line,SN12C,5.94 µM
same,LC50 (concentration causing 50% net cell kill),MDA-MB-435,> 100 µM
same,GI50,MDA-MB-435; [2],5.44 µM
same,TGI Concentration/Cell Line,COLO 205,4.61 µM
same,GI50,COLO 205; [3],2.13 µM
same,GI50,CAKI-1; [3],1.52 µM
same,CC50,CAKI-1; [4],9.78 µM
same,TGI Concentration/Cell Line,CAKI-1,3.00 µM
same,TGI Concentration/Cell Line,MCF7,4.95 µM
same,GI50,MCF7; [3],1.87 µM
same,GI50,HOP-62; [3],2.68 µM
same,TGI Concentration/Cell Line,HOP-62,6.97 µM
same,GI50,OVCAR-8; [3],3.08 µM
same,CC50,OVCAR-8; [4],> 100 µM
same,TGI Concentration/Cell Line,OVCAR-8,>100 µM
same,TGI Concentration/Cell Line,U251,4.00 µM
same,GI50,"U251; Homo sapiens, U-251, read-out: GI50 Concentration/Cell Line",1.89 µM
same,CC50,"U251; Homo sapiens, U-251, read-out: LC50 (the source's name)",8.47 µM
same,GI50,ACHN; [3],1.78 µM
same,CC50,ACHN; [4],6.08 µM
same,TGI Concentration/Cell Line,ACHN,3.29 µM
same,LC50,SK-MEL-5; Homo sapiens,> 100 µM
same,GI50,SK-MEL-5; [3],7.56 µM
same,TGI Concentration/Cell Line,SK-MEL-5,>100 µM
same,GI50,SF-268; [2],3.09 µM
same,CC50,SF-268; read-out: LC50 (the source's name),> 100 µM
same,percentage of cells in late apoptosis (upper right quadrant),SR cancer cell line,19%
same,TGI Concentration/Cell Line,HCC-2998,3.45 µM
same,LC50,HCC-2998; Homo sapiens,6.68 µM
same,GI50,HCC-2998; [3],1.78 µM
same,GI50 Selectivity Ratio (MID^a: MID^b),Breast Cancer subpanel; Breast Cancer subpanel,1.05
same,TGI Selectivity Ratio (MID^c: MID^d),Breast Cancer subpanel; Breast Cancer subpanel,0.87
same,TGI Subpanel MID^d,Breast Cancer subpanel; Breast Cancer subpanel average,24.3 µM
same,GI50,"Breast Cancer subpanel; Breast Cancer subpanel average, read-out: GI50 Subpanel MID^b",2.27 µM
same,GI50,"Breast Cancer subpanel; breast cancer subpanel, read-out: GI50 values range, subpanel",1.54 to 1.87 µM
same,GI50,"Melanoma subpanel; Homo sapiens, Melanoma subpanel average, read-out: GI50 Subpanel MID^b",3.77 µM
same,GI50 Selectivity Ratio (MID^a: MID^b),Melanoma subpanel; Melanoma subpanel,0.63
same,TGI Selectivity Ratio (MID^c: MID^d),Melanoma subpanel; Melanoma subpanel,0.58
same,TGI Subpanel MID^d,Melanoma subpanel; Melanoma subpanel average,36.5 µM
same,GI50 Selectivity Ratio (MID^a: MID^b),CNS Cancer subpanel; CNS Cancer subpanel,0.88
same,TGI Selectivity Ratio (MID^c: MID^d),CNS Cancer subpanel; CNS Cancer subpanel,1.08
same,TGI Subpanel MID^d,CNS Cancer subpanel; CNS Cancer subpanel average,19.5 µM
same,GI50,"CNS Cancer subpanel; Homo sapiens, CNS Cancer subpanel average, read-out: GI50 Subpanel MID^b",2.71 µM
same,GI50,"Renal Cancer subpanel; Homo sapiens, Renal Cancer subpanel average, read-out: GI50 Subpanel MID^b",1.86 µM
same,GI50 Selectivity Ratio (MID^a: MID^b),Renal Cancer subpanel; Renal Cancer subpanel,1.28
same,TGI Selectivity Ratio (MID^c: MID^d),Renal Cancer subpanel; Renal Cancer subpanel,1.27
same,TGI Subpanel MID^d,Renal Cancer subpanel; Renal Cancer subpanel average,16.6 µM
same,GI50 Selectivity Ratio (MID^a: MID^b),Colon Cancer subpanel; Colon Cancer subpanel,1.24
same,TGI Selectivity Ratio (MID^c: MID^d),Colon Cancer subpanel; Colon Cancer subpanel,5.34
same,TGI Subpanel MID^d,Colon Cancer subpanel; Colon Cancer subpanel average,3.95 µM
same,GI50,"Colon Cancer subpanel; Colon Cancer subpanel average, read-out: GI50 Subpanel MID^b",1.91 µM
same,GI50,"Colon Cancer subpanel; colon cancer subpanel, read-out: GI50 values range, subpanel",1.78 to 2.13 µM
same,GI50,"[1]; Homo sapiens, Non-Small-Cell Lung Cancer subpanel average, read-out: GI50 Subpanel MID^b",2.74 µM
same,GI50 Selectivity Ratio (MID^a: MID^b),[1]; [5],0.87
same,TGI Selectivity Ratio (MID^c: MID^d),[1]; [5],1.31
same,TGI Subpanel MID^d,[1]; Non-Small-Cell Lung Cancer subpanel average,16.1 µM
same,GI50,"Ovarian Cancer subpanel; Ovarian Cancer subpanel average, read-out: GI50 Subpanel MID^b",2.59 µM
same,GI50,"Ovarian Cancer subpanel; ovarian cancer subpanel, read-out: GI50 values range, subpanel",1.66 to 3.55 µM
same,GI50 Selectivity Ratio (MID^a: MID^b),Ovarian Cancer subpanel; Ovarian Cancer subpanel,0.92
same,TGI Selectivity Ratio (MID^c: MID^d),Ovarian Cancer subpanel; Ovarian Cancer subpanel,1.14
same,TGI Subpanel MID^d,Ovarian Cancer subpanel; Ovarian Cancer subpanel average,18.5 µM
same,GI50,"Leukemia subpanel; Leukemia subpanel average, read-out: GI50 Subpanel MID^b",2.72 µM
same,GI50,"Leukemia subpanel; leukemia subpanel, read-out: GI50 values range, subpanel",2.15 to 3.15 µM
same,GI50 Selectivity Ratio (MID^a: MID^b),Leukemia subpanel; Leukemia subpanel,0.88
same,TGI Subpanel MID^d,Leukemia subpanel; Leukemia subpanel average,81.1 µM
same,GI50,"Prostate Cancer subpanel; Homo sapiens, Prostate Cancer subpanel average, read-out: GI50 Subpanel MID^b",3.41 µM
same,GI50 Selectivity Ratio (MID^a: MID^b),Prostate Cancer subpanel; Prostate Cancer subpanel,0.69
same,TGI Selectivity Ratio (MID^c: MID^d),Prostate Cancer subpanel; Prostate Cancer subpanel,5.89
same,TGI Subpanel MID^d,Prostate Cancer subpanel; Prostate Cancer subpanel average,3.58 µM

# Reference: article PMC7411887, “New Paracyclophanylthiazoles with Anti-Leukemia Activity: Design, Synthesis, Molecular Docking, and Mechanistic Studies” (Molecules, 2020)
